{
  "source": "patent US7098372B1",
  "about": "“Pharmaceutical compositions and methods of using secreted frizzled related protein” (Wyeth, priority 1999, dated 2006)",
  "type_in_all_cases": "cell-based, human",
  "key": {"[1]": {"system": "hOB-03-C5 cells", "test": "Apoptosis by flow cytometry using annexin V-FITC and propidium iodide", "procedure": "Apoptosis was measured by flow cytometry using annexin V-FITC.\n(§1) The hypothesis that up-regulation of SFRP-1/FRP-1/SARP-2 gene expression accelerates hOB cell death, while down-regulation of SFRP-1/FRP-1/SARP-2 gene expression suppresses cell death, was next examined. […] The next day, the 6-well plates were rinsed with PBS, placed in BSA-medium, and treated at 39° C. in the absence or presence of either 100 nM PGE2 (in order to up-regulate SFRP-1/FRP-1/SARP-2 steady-state mRNA levels; panels A & B), or 0.01–1.0 nM TGF-β1 (in order to down-regulate SFRP-1/FRP-1/SARP-2 message levels; panel C). Incubating cells in serum-free medium is a common method to induce apoptosis (Melkonyan et al. 1997 Proc. Natl. Acad. Sci. USA 94: 13636–13641), and the hOB-03-C5, hOB-03-CE6 and hOB-01-C1 cell lines all stopped dividing and gradually died under these conditions. […] In contrast, treatment of the hOB-01-C1 cells with TGF-β1 increased cell viability about 2-fold in a dose-dependent manner. […] This observation was consistent with the induction of apoptosis, which is known to result in cytoplasmic blebbing, the loss of water and a decrease in cell volume (Mesner and Kaufmann 1997 in Advances in Pharmacology, vol. 41, pp. 57–88). […] Finally, treatment of the hOB-03-C5 cells with PGE2 increased annexin V (a specific marker for apoptosis) binding to the cell as measured by flow cytometry (FIG. 11)."}, "[2]": {"system": "hOB-03-C5 cells", "test": "Generation of histone-associated DNA fragments", "procedure": "as §1"}, "[3]": {"system": "β-catenin", "test": "Western blot analysis for β-catenin", "details": "hOB-03-CE6 cells, 100 nM, 24 hr", "procedure": "FIG. 15 is an autoradiogram of a Western blot of whole cell extracts isolated from hOB-03-CE6 cells treated with either control or PGE2 for 24 hr. The immunoblot was probed with a monoclonal antibody to β-catenin, which has a molecular weight of 92,000.\nIn order to determine if the up-regulation of SFRP-1/FRP-1/SARP-2 gene expression results in an antagonism of the Wnt signaling pathway, hOB-03-CE6 cells were treated with PGE2 and the resulting cells probed with β-catenin monoclonal antibody. Overexpression of Wnt proteins in cells up-regulates a signaling protein known as β-catenin (reviewed in Moon et al. 1997 Cell 88: 725–728; Barth et al. 1997 Curr. Opin. Cell Biol. 9: 683–690; and Nusse 1997 Cell 89: 321–323). […] Therefore, hOB-03-CE6 cells were plated and treated with PGE2 as described in Example 1, except that total cellular protein was extracted and a Western blot analysis for β-catenin was performed using a monoclonal antibody to the protein (Transduction Laboratories) as previously described (Bodine et al. 1996 Endocrinology 137: 4592–4604; Melkonyan et al. 1997 Proc. Natl. Acad. Sci. USA 94: 13636–13641). […] Both human and rat SFRP-1/FRP-1/SARP-2, as well as human Frzb-1/FrzB/Fritz, suppressed TCF-luciferase activity in the hOB cells."}},
  "data": [
    {"smiles": "CCCCC[C@H](O)/C=C/[C@H]1[C@H](O)CC(=O)[C@@H]1C/C=C\\CCCC(=O)O", "note": "[PGE2, prostaglandin E2]", "values": [
      {"measurement": "annexin V binding to the cell", "setting": "[1]", "result": "increased"},
      {"measurement": "number of apoptotic cells (annexin V but not propidium iodide)", "setting": "[1]; increasing concentrations", "result": "increases"},
      {"measurement": "number of necrotic cells (annexin V and propidium iodide)", "setting": "[1]; increasing concentrations", "result": "increases"},
      {"measurement": "number of viable cells (no annexin V or propidium iodide staining)", "setting": "[1]; increasing concentrations", "result": "declines"},
      {"measurement": "histone-associated DNA fragments", "setting": "[2]", "result": "resulted in the generation of histone-associated DNA fragments"},
      {"measurement": "β-catenin protein levels", "setting": "[3]", "result": "down-regulated"}
    ]}
  ]
}
